Measurements reported in paper PMC11045757, “Group 3 medulloblastoma transcriptional networks collapse under domain specific EP300/CBP inhibition” (Nature Communications, 2024).
Where “and” joins values, the source holds several entries; their conditions need not be identical. Equal entries are not always repeated. Where two headings read alike, the source gives them in different places. One block for each molecule: values may come before it.

Key:
[1] = tested on: CBP bromodomain; assay: Differential scanning fluorimetry (DSF) thermal shift; assay type: binding; settings: ΔTm (CBP)/ΔTm(BRD4)
Method: (§1) After 18 h growth, the culture was harvested by centrifugation at 6000 × g for 25 min and stored at -80 °C. Harvested cell pellets were re-suspended in 50 mM Na/K phosphate buffer (pH 7.4) containing 100 mM NaCl, 40 mM imidazole, 0.01% w/v lysozyme and 0.01% v/v Triton X-100 at 4 °C for 1 h, subjected to sonication and the lysate was clarified by centrifugation (30,000 × g for 45 min at 4 °C). Proteins were purified by FPLC at 4 °C using columns and chromatography materials from GE Healthcare. […] Proteins were purified to homogeneity by size exclusion chromatography using Superdex 75 equilibrated with elution buffer (50 mM HEPES pH 7.5, 100 mM NaCl, 2 mM DTT). […] Pool fractions were combined, concentrated to 10–12 mg/ml, and aliquots were flash-frozen in liquid N2 and stored at −80 °C.
(§2) DSF experiments were performed with an Applied Biosystem StepOnePlus real-time PCR system (Thermo Fisher Scientific) using 96-well format plates, assayed in quadruplicate. For thermal shift determination, 5 μM protein was mixed with 100 μM compound in 50 mM HEPES, pH 7.5, 150 mM NaCl, 2 mM DTT, 2% DMSO, 5X SYPRO Orange (Thermo Fisher Scientific) in 20 μL reaction volumes.

[2] = molecular target: T1, CBP bromodomain (Homo sapiens, UniProt Q92793); assay: as above; assay type: binding
T1 construct: CBP (residues 1081-1197); 6xHis (cleaved yes); host or cells: E. coli BL21 (DE3) RIL
T1 sequence (Q92793 1081-1197): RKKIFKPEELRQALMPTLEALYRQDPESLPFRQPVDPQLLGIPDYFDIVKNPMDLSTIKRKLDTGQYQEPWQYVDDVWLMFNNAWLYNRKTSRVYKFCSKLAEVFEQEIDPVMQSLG
Method: as §1, §2

[3] = molecular target: GFP-tagged CBP bromodomain (Homo sapiens, UniProt Q92793); assay: Microscale thermophoresis (MST); assay type: binding; settings: for Bound (Fit Results): fitted MST response of bound state; for Bound (Fit Results) / Unbound (Fit Results): target clGFP-CBPBRD 5e-8; for Unbound (Fit Results): fitted MST response of unbound state
GFP-tagged CBP bromodomain, sequence (Q92793 1085-1192 limits assumed): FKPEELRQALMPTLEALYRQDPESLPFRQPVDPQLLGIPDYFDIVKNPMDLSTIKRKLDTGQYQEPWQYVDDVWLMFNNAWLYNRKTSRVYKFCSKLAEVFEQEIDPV
Method: MST experiments were performed in a Monolith NT.115 Pico instrument (NanoTemper Technologies) following published procedures. […] MST traces were recorded using standard parameters: 5 s MST power off, 30 s MST power on and 5 s MST power off. Measurements were taken at -1-0 s (cold region) and 10 s (hot region) and data were analyzed using the NTAnalysis software.

[4] = molecular target: T2, BRD4-BD1 (BRD4-1) (Homo sapiens, UniProt O60885); assay: Differential scanning fluorimetry (DSF) thermal shift; assay type: binding; settings: DSF
T2 construct: BRD4-BD1 (residues 44-168); 6xHis (cleaved yes); host or cells: E. coli BL21 (DE3) RIL
Method: (§3) At OD600 of 0.6, the culture was cooled down to 18 °C and induced with 0.1 mM IPTG. After 18 h growth, the culture was harvested by centrifugation at 6000 × g for 25 min and stored at -80 °C. Harvested cell pellets were re-suspended in 50 mM Na/K phosphate buffer (pH 7.4) containing 100 mM NaCl, 40 mM imidazole, 0.01% w/v lysozyme and 0.01% v/v Triton X-100 at 4 °C for 1 h, subjected to sonication and the lysate was clarified by centrifugation (30,000 × g for 45 min at 4 °C). Proteins were purified by FPLC at 4 °C using columns and chromatography materials from GE Healthcare. […] Proteins were purified to homogeneity by size exclusion chromatography using Superdex 75 equilibrated with elution buffer (50 mM HEPES pH 7.5, 100 mM NaCl, 2 mM DTT). All BRDs eluted as monomeric protein and were of crystallization grade quality (>95% purity as judged by SDS-PAGE). Pool fractions were combined, concentrated to 10–12 mg/ml, and aliquots were flash-frozen in liquid N2 and stored at −80 °C.
as §2, with “volumes. Reaction mixtures were heated from 25 to 95 °C at 1 °C/min with fluorescence readings every 0.5 °C at 610 nm. The observed thermal shift (ΔTm) was recorded as the difference between the Tm of sample and DMSO reference wells.” for “volumes.”

[5] = molecular target: T3, EP300 bromodomain (Homo sapiens, UniProt Q09472); assay: as above; assay type: binding; settings: DSF
T3 construct: 6xHis (cleaved yes); host or cells: E. coli BL21 (DE3) RIL
T3 sequence (Q09472 1048-1161): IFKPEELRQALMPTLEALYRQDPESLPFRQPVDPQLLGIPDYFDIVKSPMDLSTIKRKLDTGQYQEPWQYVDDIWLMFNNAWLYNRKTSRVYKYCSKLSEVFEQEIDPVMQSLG
Method: as §3
as §2, with “volumes. Reaction mixtures were heated from 25 to 95 °C at 1 °C/min with fluorescence readings every 0.5 °C at 610 nm. The observed thermal shift (ΔTm) was recorded as the difference between the Tm of sample and DMSO reference wells.” for “volumes.”

[6] = tested on: HDMB03 (HDMBO3) group 3 medulloblastoma cells; assay: CellTiter-Glo dose-response growth assay; assay type: cell-based; settings: Homo sapiens, HD-MB03; HDMBO3 G3MB cell growth; read-out: IC50 (nM) HDMBO3
Method: CellTiter-Glo assay was performed as per the manufacturer’s instructions, at the noted timepoint after compound treatment or plating. For Kelly, TE617T, RhJT, NCIH2122, NCIH650 and 143B, 500 cells were plated in normal growth media per well in a 384-well plate (Corning). HDMB03 and MB002 cells were plated in growth media at 500 cells/well in a 384-well plate. […] Cells were incubated for the noted timepoints prior to performing CellTiter-Glo assay as per the manufacturer’s instructions, and reading plates on an Envision 2104 microplate reader.

[7] = MST, single replicate run, target clGFP-CBPBRD, TargetConcentration 5e-8, MST-Power Medium, unit inferred, read-out: Kd (Fit Results, Fit Model: Kd)
[8] = single replicate run, listed as iCBP-4
[9] = 5 μM protein, 100 μM compound, three independent experiments, average ± SD

- ∆Tm (°C) CBP ([2]; DSF, 5 μM protein, 100 μM compound, three independent experiments, average ± SD): 9.9 ± 1.02 °C
- ΔTm (°C) CBP ([2]; Figure 3A, DSF, CBP bromodomain): 9.9 °C
- ΔTm (°C) CBP ([2]; Figure 3B, DSF, CBP): 9.9 °C
- DSF ΔTm (°C) ([2]; Figure 3C, DSF (values equal CBP column)): 9.9 °C
- Kd ([3]; Figure 3C, MST, read-out: MST Kd): 116 nM
- Response (Dose Response Curve) ([3]; MST raw response, Dose 1.52588e-10, single replicate run, listed as iCBP-4): 892.093 and 891.258 and 891.615
- Response (Dose Response Curve (Outliers)) ([3]; MST raw response, Dose 3.05176e-10, point marked as outlier and left out of the fit): 895.82
- Response (Dose Response Curve) ([3]; MST raw response, Dose 3.05176e-10, single replicate run, listed as iCBP-4): 892.272 and 892.058
- Response (Dose Response Curve) ([3]; MST raw response, Dose 6.10352e-10, single replicate run, listed as iCBP-4): 892.269 and 892.744 and 892.22
- Response (Dose Response Curve) ([3]; MST raw response, Dose 1.2207e-9, single replicate run, listed as iCBP-4): 892.399 and 891.675 and 892.288
- Response (Dose Response Curve) ([3]; MST raw response, Dose 2.44141e-9, single replicate run, listed as iCBP-4): 891.725 and 891.585 and 891.994
- Response (Dose Response Curve) ([3]; MST raw response, Dose 4.88281e-9, single replicate run, listed as iCBP-4): 891.567 and 892.575 and 891.165
- Response (Dose Response Curve) ([3]; MST raw response, Dose 9.76563e-9, single replicate run, listed as iCBP-4): 891.493 and 891.567 and 891.238
- Response (Dose Response Curve) ([3]; MST raw response, Dose 1.95313e-8, single replicate run, listed as iCBP-4): 891.688 and 891.424 and 891.76
- Response (Dose Response Curve) ([3]; MST raw response, Dose 3.90625e-8, single replicate run, listed as iCBP-4): 892.161 and 891.262 and 889.541
- Response (Dose Response Curve) ([3]; MST raw response, Dose 7.8125e-8, single replicate run, listed as iCBP-4): 890.263 and 890.555 and 890.434
- Response (Dose Response Curve) ([3]; MST raw response, Dose 1.5625e-7, single replicate run, listed as iCBP-4): 890.147 and 890.553 and 889.395
- Response (Dose Response Curve) ([3]; MST raw response, Dose 3.125e-7, single replicate run, listed as iCBP-4): 888.926 and 888.984 and 889.107
- Response (Dose Response Curve) ([3]; MST raw response, Dose 6.25e-7, single replicate run, listed as iCBP-4): 888.767 and 888.447 and 889.182
- Response (Dose Response Curve) ([3]; MST raw response, Dose 1.25e-6, single replicate run, listed as iCBP-4): 887.998 and 889.672 and 887.288
- Response (Dose Response Curve) ([3]; MST raw response, Dose 2.5e-6, single replicate run, listed as iCBP-4): 887.993 and 886.376 and 888.472
- Response (Dose Response Curve) ([3]; MST raw response, Dose 5e-6, single replicate run, listed as iCBP-4): 887.809 and 888.569 and 888.97
- Kd [3, 7]: 142 nM and 167 nM and 39.1 nM
- Bound (Fit Results) [3, 8]: 887.684 and 887.776 and 888.434
- Unbound (Fit Results) [3, 8]: 892.098 and 891.946 and 891.879
- loss of binding affinity (CBP) ([3]; relative to CCS1477): ~ 40 fold
- Kd ([3]; three independent MST experiments, average ± SD, read-out: Kd (nM) CBP): 116 ± 68 nM
- ∆Tm (°C) BRD4-1 [4, 9]: 2.1 ± 0.96 °C
- ΔTm (°C) BRD4-BD1 ([4]; Figure 3A, BRD4-BD1): 2.1 °C
- ∆Tm (°C) EP300 [5, 9]: 9.2 ± 1.5 °C
- ΔTm (°C) EP300 ([5]; Figure 3B, EP300): 9.2 °C
- IC50 [6]: 271 ± 62 nM
SMILES: COC1CCC(n2c(C3CCCC(=O)N3c3cc(C(F)(F)F)cc(C(F)(F)F)c3)nc3cc(-c4c(C)noc4C)ccc32)CC1 (stereo not shown) [Compound 4]
- Ratio CBP/BRD4 of ∆Tm [1]: 4.7

- Response (Dose Response Curve) ([3]; MST raw response, Dose 1.52588e-10, single replicate run): 915.174
- Response (Dose Response Curve) ([3]; MST raw response, Dose 3.05176e-10, single replicate run): 914.49
- Response (Dose Response Curve) ([3]; MST raw response, Dose 6.10352e-10, single replicate run): 915.362
- Response (Dose Response Curve) ([3]; MST raw response, Dose 1.2207e-9, single replicate run): 915.368
- Response (Dose Response Curve) ([3]; MST raw response, Dose 2.44141e-9, single replicate run): 914.907
- Response (Dose Response Curve) ([3]; MST raw response, Dose 4.88281e-9, single replicate run): 914.429
- Response (Dose Response Curve) ([3]; MST raw response, Dose 9.76563e-9, single replicate run): 913.858
- Response (Dose Response Curve) ([3]; MST raw response, Dose 1.95313e-8, single replicate run): 914.04
- Response (Dose Response Curve) ([3]; MST raw response, Dose 3.90625e-8, single replicate run): 913.557
- Response (Dose Response Curve) ([3]; MST raw response, Dose 7.8125e-8, single replicate run): 913.257
- Response (Dose Response Curve) ([3]; MST raw response, Dose 1.5625e-7, single replicate run): 911.399
- Response (Dose Response Curve) ([3]; MST raw response, Dose 3.125e-7, single replicate run): 910.65
- Response (Dose Response Curve) ([3]; MST raw response, Dose 6.25e-7, single replicate run): 909.717
- Response (Dose Response Curve) ([3]; MST raw response, Dose 1.25e-6, single replicate run): 910.942
- Response (Dose Response Curve) ([3]; MST raw response, Dose 2.5e-6, single replicate run): 910.368
- Response (Dose Response Curve) ([3]; MST raw response, Dose 5e-6, single replicate run): 911.15
- Kd [3, 7]: 44.3 nM
- Bound (Fit Results) ([3]; single replicate run): 910.375
- Unbound (Fit Results) ([3]; single replicate run): 914.969
SMILES: COC1CCC(n2c(C3CCCC(=O)N3c3ccccc3)nc3cc(-c4c(C)noc4C)ccc32)CC1 (stereo not shown) [iCBP5-5]
